From publication PMC2216936 (The Journal of General Physiology, 1995)

Experiments:
[1] = molecular target: voltage-gated sodium channel (sheep brain synaptoneurosomes; isoform not stated); test: inhibition of [3H]-BTX-B radioligand binding at […] C; parameters: species or system Ovis aries
[2] = test system: voltage-gated sodium channel (GH3 cells; isoform not stated); test: whole-cell voltage clamp, block of peak INa; format: cell-based

IC50 [1]: 3.3 µM
IC50 [2]: 27 µM
SMILES: CCCCN(CCCC)CCNC(=O)c1ccc(N=[N+]=[N-])cc1 [DNB-AB, N-(2-di-N-butyl-aminoethyl)-4-azidobenzamide]
